Consider 3 compounds from patent US9943507B2, “Treatment of pancreatic and related cancers with 5-acyl-6,7-dihydrothieno[3,2-c]pyridines” (Memorial Sloan-Kettering Cancer Center, priority 2012, dated 2018).

The term IC50 denotes the concentration needed to halve the response being measured. The inhibition is the drop in the measured response relative to a control, in per cent. A higher inhibition goes with a strong effect.

The target in assay [1] is T1, Hhat (Homo sapiens, UniProt Q5VTY9).
T1 construct: expressed in transfected cells; host or cells: 293FT cells (P100 membrane fraction)
T1 sequence (Q5VTY9 whole entry): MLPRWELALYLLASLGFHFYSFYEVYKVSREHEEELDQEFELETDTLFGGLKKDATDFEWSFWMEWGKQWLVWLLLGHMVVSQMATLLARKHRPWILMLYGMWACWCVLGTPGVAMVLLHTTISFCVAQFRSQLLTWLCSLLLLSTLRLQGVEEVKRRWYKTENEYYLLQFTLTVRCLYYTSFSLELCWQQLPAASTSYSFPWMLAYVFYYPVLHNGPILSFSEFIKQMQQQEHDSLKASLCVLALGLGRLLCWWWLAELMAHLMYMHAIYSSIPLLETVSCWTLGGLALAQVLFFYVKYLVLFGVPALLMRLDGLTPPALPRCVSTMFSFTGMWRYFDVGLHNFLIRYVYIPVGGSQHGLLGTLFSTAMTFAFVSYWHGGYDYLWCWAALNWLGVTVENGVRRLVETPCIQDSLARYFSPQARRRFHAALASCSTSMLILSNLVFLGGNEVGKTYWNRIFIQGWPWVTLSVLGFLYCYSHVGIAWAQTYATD
The assay is described as follows: In vitro Hhat activity assay with purified enzyme and ShhN recombinant protein (IC50). It is filed as biochemical. Particulars: saturating substrate; purified enzyme, 0.7 μM ShhN recombinant protein, 18 μM 125I-iodo-palmitoylCoA. Here is the method: Expression and purification of recombinant Shh were carried out as described in Buglino, J. A. and Resh, M. D. “Hhat is a palmitoylacyl transferase with specificity for N-palmitoylation of sonic hedgehog”. J. Biol. Chem. 283, 22076-22088 (2008) and Buglino, J. A. and Resh, M. D. “Identification of conserved regions and residues within Hedgehog acyltransferase critical for palmitoylation of Sonic Hedgehog”. PLoS One 5, e11195 (2010). N-terminally 6×His tagged human Shh 24-197 with an enterokinase cleavage site immediately upstream of residue 24 was amplified using full length Shh as a template. The purified PCR product was ligated in NcoI and BamHI cut PET19b (Novagen). C24S and C24A constructs were generated by site directed mutagenesis using the Quick Change mutagenesis kit. All mutations were confirmed by sequencing. […] Protein concentration was measured using the DC protein assay (BioRad). […]
HhatHAFlagHis was purified as follows. […] Protein concentrations were determined using the DC Protein Assay. The concentration of the final Flag eluate was determined from the absorbance at 280 nm using an extinction coefficient of 193045 cm^−1M^−1. […]

In assay [2] the target is T1, Hhat. The assay is described as follows: Hhat activity assay (SPA, P100 membranes from HA-Hhat transfected 293FT cells). It is filed as biochemical. Particulars: 12.5 μM compound, 125I-iodo-palmitoylCoA, Shh biotinylated peptide. Here is the method: Hhat activity assay: Five μl of 10 mM MES, pH 6.5 buffer was dispensed within each well of a 384-well white/clear-bottom plate (Greiner Bio-One, Kremsmuenster, Austria) using a Thermo Multi-Drop Combi dispenser. […] Percent inhibition for each experimental point was determined by the formula: [(high control−compound)/(high control−low control)]*100.

In assay [3] the test system is AsPC1 (human pancreatic adenocarcinoma) cells. The assay is described as follows: Human pancreatic adenocarcinoma cell assay. Type of assay: cell-based. Particulars: day six, FIG. 3. The method, then: Human pancreatic adenocarcinoma cell assay: 5000 AsPC1 (human pancreatic adenocarcinoma) cells were plated in each well of a 384-well black/clear-bottom tissue culture plate (Greiner Bio-One, Kremsmuenster, Austria), using Thermo Multi-Drop Combi dispenser. The plates were incubated at 37° C. for 24 h before compounds were dispensed using a Janus “Varispan” automated syringe pipette at 50 μM final concentration. High control (DMSO only) and low control (cell media only) rows were included in each plate. After 48 h incubation, Alamar Blue (Invitrogen) was added to each well in 1:100 ratio. 4 h later, cell viability was assessed by measuring fluorescence on a Perkin-Elmer EnVision plate reader.
Compound 13 was tested in the human pancreatic adenocarcinoma cell assay. The results are shown graphically in FIG. 3. At 10 μM it reduced the proliferation of human pancreatic cancer cells 50% at day six. At 20 μM it reduced the proliferation of human pancreatic cancer cells by 70% at day six.

Regarding `CCC(C)CNCC(=O)N1CCc2sccc2C1c1cccc(C)n1` (centres unmarked) [Example 14], on Hhat [1], the IC50 worked out at 680 nM.
Compound `C=CCNCC(=O)N1CCc2sccc2C1c1ccccc1` (centres unmarked) [Example 5] returned an inhibition at 12.5 µM against Hhat [2] of 95.6%.
For the compound `CCC(C)CNCC(=O)N1CCc2sccc2C1c1cccc(C)c1` (centres unmarked) [Example 13], the “reduction of proliferation of human pancreatic cancer cells” value in assay [3] (10 μM) turned out to be 50%; in assay [3] (20 μM) it was 70%. For the same compound, the IC50 at Hhat [1] was found to be 2050 nM.
